# In BindingDB's records for doi:10.1021/jm00348a025 (1982):
# How the values were obtained:
# [1] = target: Alkaline phosphatase, tissue-nonspecific isozyme (Homo sapiens) (UniProt P05186); experiment: Concentration required for 50% inhibition of human leukocyte alkaline phosphatase in the presence of 10 mM p-nitrophenyl phosphate as substrate
# [2] = target: Alkaline phosphatase, tissue-nonspecific isozyme (Homo sapiens) (UniProt P05186); experiment: as above; remark: listed apart in the source
# Sequence of Alkaline phosphatase, tissue-nonspecific isozyme (Homo sapiens) (P05186 whole entry, looked up): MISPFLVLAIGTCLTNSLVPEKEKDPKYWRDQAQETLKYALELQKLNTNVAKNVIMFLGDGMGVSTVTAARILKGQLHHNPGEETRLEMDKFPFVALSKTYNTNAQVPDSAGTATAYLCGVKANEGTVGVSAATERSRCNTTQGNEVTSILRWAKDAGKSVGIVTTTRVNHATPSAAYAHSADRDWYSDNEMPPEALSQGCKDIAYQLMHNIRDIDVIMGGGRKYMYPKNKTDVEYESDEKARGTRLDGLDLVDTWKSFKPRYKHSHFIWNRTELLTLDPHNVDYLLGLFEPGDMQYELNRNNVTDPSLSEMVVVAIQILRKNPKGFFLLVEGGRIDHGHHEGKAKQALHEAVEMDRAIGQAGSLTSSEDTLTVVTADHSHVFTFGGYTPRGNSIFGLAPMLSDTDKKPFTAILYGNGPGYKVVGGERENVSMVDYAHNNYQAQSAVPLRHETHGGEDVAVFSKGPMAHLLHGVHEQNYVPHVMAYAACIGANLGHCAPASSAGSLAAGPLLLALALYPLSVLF
IC50 [1] [mM],IC50 [2] [mM],Structure (SMILES)
0.97,,CCCCc1cc2c(O)cc(C(=O)O)nc2c2c(O)cc(C(=O)O)nc12
,0.34,O=C(O)c1ccc2nc3ccc(O)cc3c(=O)n2c1
,1.75,"CCCOc1ccccc1-c1nc2nn[nH]c2c(=O)[nH]1 [5-(2-propoxyphenyl)-2H,3H,7H-[1,2,3]triazolo[4,5-d]pyrimidin-7-one]"
9.68,,O=C(O)c1cc(=O)c2c(OCC(O)COc3cccc4oc(C(=O)O)cc(=O)c34)cccc2o1 [Crolom]
